Columns and labels:
Type in all cases: cell-based
human SGLT1 = biological target: T1, human SGLT1 (Homo sapiens, UniProt P13866); assay: Inhibition test for sodium-dependent sugar uptake in CHO-K1 cells stably expressing human SGLT1; conditions: [14C]methyl α-D-glucopyranoside uptake, 37° C., 30 minutes, read-out: IC50 for hSGLT1
T1 construct: expressed in transfected cells; host or cells: CHO-K1
T1 sequence (P13866 1-664): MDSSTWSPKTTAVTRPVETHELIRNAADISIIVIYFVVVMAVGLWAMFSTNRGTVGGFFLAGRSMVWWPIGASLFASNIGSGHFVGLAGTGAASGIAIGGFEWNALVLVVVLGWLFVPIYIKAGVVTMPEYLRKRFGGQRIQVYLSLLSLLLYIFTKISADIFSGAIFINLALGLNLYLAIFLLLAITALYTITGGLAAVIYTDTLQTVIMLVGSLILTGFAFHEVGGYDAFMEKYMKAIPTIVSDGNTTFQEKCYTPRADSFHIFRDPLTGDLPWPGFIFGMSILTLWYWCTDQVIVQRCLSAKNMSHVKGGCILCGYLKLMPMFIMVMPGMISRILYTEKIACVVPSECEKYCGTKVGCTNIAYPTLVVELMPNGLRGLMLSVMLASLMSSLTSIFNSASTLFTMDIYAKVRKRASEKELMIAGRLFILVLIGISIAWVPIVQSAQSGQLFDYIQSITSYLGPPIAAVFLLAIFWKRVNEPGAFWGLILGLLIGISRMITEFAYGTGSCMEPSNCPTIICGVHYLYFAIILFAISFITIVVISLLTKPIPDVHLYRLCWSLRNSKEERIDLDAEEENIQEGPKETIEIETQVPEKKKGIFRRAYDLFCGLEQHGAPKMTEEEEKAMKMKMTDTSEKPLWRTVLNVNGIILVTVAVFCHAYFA
Procedure: (1) Creation of CHO-K1 Cells Stably Expressing Human SGLT1
(§1) A plasmid vector expressing human SGLT1 protein was transfected into CHO-K1 cells using lipofectamine 2000 (Invitrogen). The cells were cultured in the presence of 500 μg/mL geneticin to select resistant strains, followed by screening in the system shown below using sugar uptake capacity as an indicator to obtain SGLT1-expressing cells.
(§2) (3) Inhibition Test for Sodium-Dependent Sugar Uptake in Stably Expressing Cells
(§3) The stably expressing cells prepared above were used in the following test.
(§4) Pretreatment buffer (140 mM choline chloride, 2 mM KCl, 1 mM CaCl2, 1 mM MgCl2, 10 mM HEPES/5 mM Tris, pH 7.4) was added in a volume of 200 μL to the cells stably expressing SGLT1 or 2 mL for Method A and 200 μL for Method B to the cells stably expressing SGLT2, followed by incubation for 20 minutes. The pretreatment buffer was removed and replaced by uptake buffer containing a test compound (1 mM methyl α-D-glucopyranoside (containing [^14C]methyl α-D-glucopyranoside), 140 mM NaCl, 2 mM KCl, 1 mM CaCl2, 1 mM MgCl2, 10 mM HEPES/5 mM Tris, pH 7.4) in a volume of 75 μL for SGLT1 and SGLT2 in Method B or 200 μL for SGLT2 in Method A. Uptake reaction was performed at 37° C. for 30 minutes (SGLT1) or 60 minutes (SGLT2). After the reaction, the cells were washed twice with washing buffer (10 mM methyl α-D-glucopyranoside, 140 mM choline chloride, 2 mM KCl, 1 mM CaCl2, 1 mM MgCl2, 10 mM HEPES/5 mM Tris, pH 7.4) in a volume of 200 μL for SGLT1 and SGLT2 in Method B or 2 mL for SGLT2 in Method A, and then dissolved in a 0.25 M NaOH solution (75 μL for SGLT1 and SGLT2 in Method B or 400 μL for SGLT2 in Method A). A liquid scintillator (Perkin Elmer) was added and mixed well with each sample, followed by measurement of radioactivity using a β-ray analyzer. For the control group, uptake buffer containing no test compound was prepared. Moreover, another uptake buffer containing choline chloride instead of NaCl was also prepared for basal uptake.
(§5) For determination of IC50 values, test compounds prepared at 6 appropriate concentrations were used and their concentrations required for 50% inhibition of the amount of sugar uptake (IC50 values) were calculated relative to the amount of sugar uptake in the control group (100%).

[1] = biological target: T2, human SGLT2 protein modified to have LeuGluSerArgGlyProVal added to the carboxy-terminal final residue (Homo sapiens, UniProt P31639); assay: Inhibition test for sodium-dependent sugar uptake in CHO-K1 cells stably expressing human SGLT2, Method A; conditions: uptake 37° C., 60 minutes, read-out: IC50 for hSGLT2 Method A
T2 construct: expressed in transfected cells; host or cells: CHO-K1
T2 sequence (P31639 with tags, fused parts or gaps): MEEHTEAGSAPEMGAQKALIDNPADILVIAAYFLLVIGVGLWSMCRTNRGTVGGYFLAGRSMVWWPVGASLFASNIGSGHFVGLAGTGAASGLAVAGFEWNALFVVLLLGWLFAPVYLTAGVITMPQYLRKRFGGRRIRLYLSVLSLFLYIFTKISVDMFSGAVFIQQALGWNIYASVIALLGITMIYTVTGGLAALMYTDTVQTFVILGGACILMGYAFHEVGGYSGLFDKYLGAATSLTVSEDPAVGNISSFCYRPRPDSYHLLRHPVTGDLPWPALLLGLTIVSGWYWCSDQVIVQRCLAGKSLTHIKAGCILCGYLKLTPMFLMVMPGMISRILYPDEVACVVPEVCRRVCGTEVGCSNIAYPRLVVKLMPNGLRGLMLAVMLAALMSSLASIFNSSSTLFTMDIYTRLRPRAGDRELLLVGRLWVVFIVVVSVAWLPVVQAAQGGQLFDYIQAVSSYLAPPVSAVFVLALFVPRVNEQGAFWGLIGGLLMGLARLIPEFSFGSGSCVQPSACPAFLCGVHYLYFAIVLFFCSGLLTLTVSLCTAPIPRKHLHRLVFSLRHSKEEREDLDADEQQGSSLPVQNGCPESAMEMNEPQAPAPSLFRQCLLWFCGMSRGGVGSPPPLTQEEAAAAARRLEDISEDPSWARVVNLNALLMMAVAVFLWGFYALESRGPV
Procedure: (§6) (2) Creation of CHO-K1 Cells Stably Expressing Human SGLT2
as §1, with “Method A (described in WO2007/136116): A” for “A”, “SGLT2” for “SGLT1”, “protein modified to have LeuGluSerArgGlyProVal added to the carboxy-terminal final residue” for “protein”, “hygromycin B” for “geneticin”, “SGLT2-expressing” for “SGLT1-expressing”
as §2, §3, §4, §5

human SGLT2 = biological target: T3, human SGLT2 (Homo sapiens, UniProt P31639); assay: Inhibition test for sodium-dependent sugar uptake in CHO-K1 cells stably expressing human SGLT2, Method B; conditions: uptake 37° C., 60 minutes, read-out: IC50 for hSGLT2 Method B
T3 construct: expressed in transfected cells; host or cells: CHO-K1
T3 sequence (P31639 1-672): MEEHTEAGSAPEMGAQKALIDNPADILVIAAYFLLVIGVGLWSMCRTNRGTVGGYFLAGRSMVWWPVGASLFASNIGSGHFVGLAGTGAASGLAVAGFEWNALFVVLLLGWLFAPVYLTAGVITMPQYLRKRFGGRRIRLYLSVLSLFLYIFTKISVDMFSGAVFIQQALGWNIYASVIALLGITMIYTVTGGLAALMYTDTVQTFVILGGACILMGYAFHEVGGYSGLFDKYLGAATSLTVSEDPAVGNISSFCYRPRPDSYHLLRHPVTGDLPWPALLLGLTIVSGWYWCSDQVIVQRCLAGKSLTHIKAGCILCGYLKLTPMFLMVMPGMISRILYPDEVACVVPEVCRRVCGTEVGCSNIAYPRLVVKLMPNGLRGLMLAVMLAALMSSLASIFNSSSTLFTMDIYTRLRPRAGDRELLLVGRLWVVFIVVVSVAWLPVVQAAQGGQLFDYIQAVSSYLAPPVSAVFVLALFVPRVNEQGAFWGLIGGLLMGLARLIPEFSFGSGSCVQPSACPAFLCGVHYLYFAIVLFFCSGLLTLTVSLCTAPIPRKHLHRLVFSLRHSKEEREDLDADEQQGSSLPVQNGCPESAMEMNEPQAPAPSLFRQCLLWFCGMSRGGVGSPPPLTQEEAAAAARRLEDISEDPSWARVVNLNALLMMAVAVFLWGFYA
Procedure: as §6
as §1, with “Method B: A” for “A”, “SGLT2” for “SGLT1”, “LTX” for “2000”, “1000” for “500”, “SGLT2-expressing” for “SGLT1-expressing”
as §2, §3, §4, §5

SMILES | IC50 (human SGLT1) [nM] | IC50 [1] [µM] | IC50 (human SGLT2) [nM]
CCN1CCN(C(=O)C(C)(C)NC(=O)C(C)(C)/C=C/c2ccc(Cc3cc([C@@H]4O[C@H](CO)[C@@H](O)[C@H](O)[C@H]4O)c(O)cc3C(C)C)c(C)c2)CC1 [Example 4-2] | 46 | 1.64 | 76
COc1cc(C(C)C)c(Cc2ccc(/C=C/C(C)(C)C(=O)NC(C)(C)C(=O)NC3CCNCC3)cc2C)cc1[C@@H]1O[C@H](CO)[C@@H](O)[C@H](O)[C@H]1O [Example 14-2] | 72 | 2.39 | 82
COc1cc(C(C)C)c(Cc2ccc(/C=C/C(C)(C)C(=O)NC(C)(C)C(=O)N3CCC(N(C)C)CC3)cc2C)cc1[C@@H]1O[C@H](CO)[C@@H](O)[C@H](O)[C@H]1O [Example 12-2] | 70 | 4.95 | 113
COc1cc(C(C)C)c(Cc2ccc(/C=C/C(C)(C)C(=O)NC(C)(C)C(=O)NCCN)cc2C)cc1[C@@H]1O[C@H](CO)[C@@H](O)[C@H](O)[C@H]1O [Example 8-3] | 50 | 15.7 | 476
COc1cc(C(C)C)c(Cc2ccc(/C=C/C(C)(C)C(=O)NC(C)(C)C(=O)NCCN(C)C)cc2C)cc1[C@@H]1O[C@H](CO)[C@@H](O)[C@H](O)[C@H]1O [Example 7-2] | 46 | 11.1 | –
COc1cc(C(C)C)c(Cc2ccc(/C=C/C(C)(C)C(=O)NC(C)(C)C(=O)N3CCN(C)CC3)cc2C)cc1[C@@H]1O[C@H](CO)[C@@H](O)[C@H](O)[C@H]1O [Example 10-2] | 55 | 14.9 | 281
CCN1CCN(C(=O)C(C)(C)NC(=O)C(C)(C)/C=C/c2ccc(Cc3cc([C@@H]4O[C@H](CO)[C@@H](O)[C@H](O)[C@H]4O)c(OC)cc3C(C)C)c(C)c2)CC1 [Example 11-2] | 59 | 9.75 | 546

Molecules with a lower IC50 (human SGLT1), results first:

IC50 (human SGLT1) [nM] | IC50 [1] [µM] | IC50 (human SGLT2) [nM] | SMILES
34 | 7.23 | 200 | COc1cc(C(C)C)c(Cc2ccc(/C=C/C(C)(C)C(=O)NC(C)(C)C(=O)N3CCNCC3)cc2C)cc1[C@@H]1O[C@H](CO)[C@@H](O)[C@H](O)[C@H]1O [Example 9-2]
35 | 1.72 | 81 | Cc1cc(/C=C/C(C)(C)C(=O)NC(C)(C)C(=O)N2CCN(C)CC2)ccc1Cc1cc([C@@H]2O[C@H](CO)[C@@H](O)[C@H](O)[C@H]2O)c(O)cc1C(C)C [Example 3-2]
38 | 1.02 | 17 | COc1cc(C(C)C)c(Cc2ccc(/C=C/C(C)(C)C(=O)NC(C)(C)C(=O)N3CCNCC3)cc2)cc1[C@@H]1O[C@H](CO)[C@@H](O)[C@H](O)[C@H]1O [Example 16-2]
30 | 0.971 | 28 | Cc1cc(/C=C/C(C)(C)C(=O)NC(C)(C)C(=O)N2CCNCC2)ccc1Cc1cc([C@@H]2O[C@H](CO)[C@@H](O)[C@H](O)[C@H]2O)c(O)cc1C(C)C [Example 2-2]
42 | 0.979 | 26 | COc1cc(C(C)C)c(Cc2ccc(/C=C/C(C)(C)C(=O)NC(C)(C)C(=O)N3CCN(C)CC3)cc2)cc1[C@@H]1O[C@H](CO)[C@@H](O)[C@H](O)[C@H]1O [Example 17-2]

— patent publication US8466113B2, “4-isopropylphenyl glucitol compounds as SGLT1 inhibitors” (Taisho Pharmaceutical Co., Ltd., priority 2009, dated 2013)
